# From patent US20210246115A1 (Bioimics AB, priority 2017, published 2021)
# Counter-ions that a name gives are not always drawn.
# Legend:
# [1] = tested on: E. coli RNase P RNA, M1 RNA; assay: Inhibition of bacterial RNase P activity, IC50 determination (cleavage of pATSerUG by M1 RNA); assay type: biochemical; details: NI: No inhibition
# [2] = tested on: Escherichia coli (ATCC25922); assay: MIC, broth microdilution (CLSI), Escherichia coli; details: Escherichia coli, ATCC25922, read-out: E. coli ATCC 25922 MIC, Table XIII
# [3] = tested on: Staphylococcus aureus (ATCC25923); assay: MIC, broth microdilution (CLSI), Staphylococcus aureus ATCC25923; details: Staphylococcus aureus, ATCC25923, read-out: S. aureus ATCC 25923 MIC
compound,measurement,setting,value
"O=C(CC(c1cn(CC2CCCCC2)c2ccccc12)C1CCNCC1)NCCC1CCNCC1 (centres unmarked) [Compound 145, 3-(1-(cyclohexylmethyl)-1H-indol-3-yl)-3-(piperidin-4-yl)-N-(2-(piperidin-4-yl)ethyl)propanamide hydrochloride salt]",IC50,[1],1480 µM
same,MIC,[2],> 512 µg/mL
same,MIC,[3],512 µg/mL
"Cc1cccc(C(CC(=O)NC2CCCCC2)c2cn(CC3CCCCC3)c3ccccc23)c1 (centres unmarked) [Compound 208, N-cyclohexyl-3-(1-(cyclohexylmethyl)-1H-indol-3-yl)-3-(m-tolyl)propanamide]",MIC,[2],> 512 µg/mL
same,MIC,[3],> 512 µg/mL
"Cc1cccc(C(CC(=O)NCC2CCNCC2)c2cn(Cc3ccccc3)c3ccccc23)c1 (centres unmarked) [Compound 79, 3-(1-benzyl-1H-indol-3-yl)-N-(piperidin-4-ylmethyl)-3-(m-tolyl)propanamide hydrochloride salt]",IC50,[1],129 µM
"Cl.N[C@H]1CC[C@H](NC(=O)CC(c2cccnc2)c2cn(CC3CCCCC3)c3ccccc23)CC1 (stereo partly drawn) [Compound 138, N-((1R,4R)-4-aminocyclohexyl)-3-(1-(cyclohexylmethyl)-1H-indol-3-yl)-3-(pyridin-3-yl)propanamide hydrochloride salt]",IC50,[1],95 µM
same,MIC,[2],128 µg/mL
same,MIC,[3],64 µg/mL
"Cc1cccc(C(CC(=O)N[C@H]2CC[C@H](O)CC2)c2cn(CC3CCCCC3)c3ccccc23)c1 (stereo partly drawn) [Compound 210, 3-(1-(cyclohexylmethyl)-1H-indol-3-yl)-N-((1R,4R)-4-hydroxycyclohexyl)-3-(m-tolyl)propanamide]",MIC,[2],> 512 µg/mL
same,MIC,[3],> 512 µg/mL
"N[C@H]1CC[C@H](NCCCc2cn(CC3CCCCC3)c3ccc(Br)cc23)CC1 [Compound 211, (1R,4R)-N1-(3-(5-bromo-1-(cyclohexylmethyl)-1H-indol-3-yl)propyl)cyclohexane-1,4-diamine hydrochloride salt]",IC50,[1],20 µM
same,MIC,[2],8 µg/mL
same,MIC,[3],4 µg/mL
"NC1CCC(NCCC(c2cccc(F)c2)c2cn(CC3CCCCC3)c3ccccc23)CC1 [Compound 172, (1S,4S)-N1-(3-(1-(cyclohexylmethyl)-1H-indol-3-yl)-3-(3-fluorophenyl)propyl) cyclohexane-1,4-diamine hydrochloride salt]",IC50,[1],10 µM
same,MIC,[2],4 µg/mL
same,MIC,[3],4 µg/mL
"Cc1cccc(C(CC(=O)N[C@H]2CC[C@H](N)CC2)c2cn(CC3CC3)c3ccccc23)c1.Cl (stereo partly drawn) [Compound 124, N-((1R,4R)-4-aminocyclohexyl)-3-(1-(cyclopropylmethyl)-1H-indol-3-yl)-3-(m-tolyl)propanamide hydrochloride salt]",IC50,[1],149 µM
same,MIC,[2],256 µg/mL
same,MIC,[3],128 µg/mL
"Cc1cccc(C(CC(=O)N(C)C2CCNCC2)c2cn(CC3CCCCC3)c3ccc(Br)cc23)c1.Cl (centres unmarked) [Compound 278, 3-(5-bromo-1-(cyclohexylmethyl)-1H-indol-3-yl)-N-methyl-N-(piperidin-4-yl)-3-(m-tolyl)propanamide hydrochloride salt]",IC50,[1],15 µM
same,MIC,[2],> 512 µg/mL
same,MIC,[3],2 µg/mL
"Cc1cccc(C(CC(=O)NC2CCNCC2)c2cn(CC3CCCCC3)c3cccnc23)c1 (centres unmarked) [Compound 98, 3-(1-(cyclohexylmethyl)-1H-pyrrolo[3,2-b]pyridin-3-yl)-N-(piperidin-4-yl)-3-(m-tolyl)propanamide hydrochloride salt]",IC50,[1],269 µM
"O=C(CC(c1cscn1)c1cn(Cc2ccccc2)c2ccccc12)NCCC1CCNCC1 (centres unmarked) [Compound 95, 3-(1-benzyl-1H-indol-3-yl)-N-(2-(piperidin-4-yl)ethyl)-3-(thiazol-4-yl) propanamide hydrochloride salt]",IC50,[1]; hydrochloride salt,1300 µM
"O=C(CC(c1cn(Cc2ccccc2)c2ccccc12)C1CCNCC1)NCCC1CCNCC1 (centres unmarked) [Compound 77, 3-(1-benzyl-1H-indol-3-yl)-3-(piperidin-4-yl)-N-(2-(piperidin-4-yl)ethyl)propanamide hydrochloride salt]",IC50,[1],140 µM
"O=C(CC(c1cscn1)c1cn(Cc2ccccc2)c2ccccc12)NC1CCNCC1 (centres unmarked) [Compound 96, 3-(1-benzyl-1H-indol-3-yl)-N-(piperidin-4-yl)-3-(thiazol-4-yl) propanamide hydrochloride salt]",IC50,[1],911 µM
"Cc1cccc(C(CC(=O)NC2CCNCC2)c2cn(Cc3ccccc3)c3cnccc23)c1 (centres unmarked) [Compound 90, 3-(1-benzyl-1H-pyrrolo[2,3-c]pyridin-3-yl)-N-(piperidin-4-yl)-3-(m-tolyl)propanamide hydrochloride salt]",IC50,[1],950 µM
COc1ccccc1-c1ccc2c(c1)c(C(CC(=O)N[C@H]1CC[C@H](N)CC1)c1cccc(C)c1)cn2CC1CCCCC1.Cl (some centres unmarked) [Compound 219],MIC,[2],> 512 µg/mL
same,MIC,[3],10 µg/mL
"O=C(CC(c1cscn1)c1cn(Cc2ccccc2)c2ccccc12)NCCC1CCNCC1 (centres unmarked) [Compound 76, 3-(1-benzyl-1H-indol-3-yl)-N-(2-(piperidin-4-yl)ethyl)-3-(thiazol-4-yl) propanamide hydrochloride salt]",IC50,[1]; hydrochloride salt,197 µM
"O=C(CCc1cn(Cc2ccccc2)c2ccccc12)NCCC1CCNCC1 [Compound 88, 3-(1-benzyl-1H-indol-3-yl)-N-(2-(piperidin-4-yl)ethyl)propanamide hydrochloride salt]",IC50,[1],842 µM
"Cc1cccc(C(CC(=O)NC2CCNC(=O)C2)c2cn(CC3CCCCC3)c3ccc(Br)cc23)c1 (centres unmarked) [Compound 296, 3-(5-bromo-1-(cyclohexylmethyl)-1H-indol-3-yl)-N-(2-oxopiperidin-4-yl)-3-(m-tolyl)propanamide hydrochloride salt]",MIC,[2],> 512 µg/mL
same,MIC,[3],> 512 µg/mL
"Cc1cccc(C(CC(=O)N[C@H]2CC[C@@H](N)CC2)c2cn(Cc3ccccc3)c3ccccc23)c1 (stereo partly drawn) [Compound 54, N-((1S,4S)-4-aminocyclohexyl)-3-(1-benzyl-1H-indol-3-yl)-3-(m-tolyl)propanamide hydrochloride salt]",IC50,[1],100 µM
"Cc1cccc(C(CC(=O)NCCN2CCCC2)c2cn(Cc3ccccc3)c3ccccc23)c1.Cl (centres unmarked) [Compound 3, 3-(1-benzyl-1H-indol-3-yl)-N-(2-(pyrrolidin-1-yl)ethyl)-3-(m-tolyl)propanamide hydrochloride salt]",MIC,[2],> 512 µg/mL
same,MIC,[3],32 µg/mL
"O=C(CC(c1cccnc1)c1cn(Cc2ccccc2)c2ccccc12)NCCC1CCNCC1 (centres unmarked) [Compound 93, 3-(1-benzyl-1H-indol-3-yl)-N-(2-(piperidin-4-yl)ethyl)-3-(pyridin-3-yl) propanamide hydrochloride salt]",IC50,[1],308 µM
"Cl.NC1CCC(NC(=O)Cc2cn(CC3CCCCC3)c3ccc(-c4cccc(OC(F)(F)F)c4)cc23)CC1 [Compound 240, N-((1S,4S)-4-aminocyclohexyl)-2-(1-(cyclohexylmethyl)-5-(3-(trifluoromethoxy)phenyl)-1H-indol-3-yl)acetamide hydrochloride salt]",MIC,[2],289 µg/mL
same,MIC,[3],9 µg/mL
"Cl.N[C@H]1CC[C@H](NC(=O)CC(c2ccccc2)c2cn(CC3CCCCC3)c3ccccc23)CC1 (stereo partly drawn) [Compound 130, N-((1R,4R)-4-aminocyclohexyl)-3-(1-(cyclohexylmethyl)-1H-indol-3-yl)-3-phenylpropanamide hydrochloride salt]",MIC,[2],64 µg/mL
same,MIC,[3],64 µg/mL
"COc1ccccc1-c1ccc2c(c1)c(C(CC(=O)N[C@H]1CC[C@H](N)CC1)c1cccc(C)c1)cn2CC1CCCCC1.Cl (some centres unmarked) [Compound 219, hydrochloride salt]",IC50,[1],7 µM
"Cc1cccc(C(CC(=O)Nc2ccc(N3CCNCC3)cc2)c2cn(CC3CCCCC3)c3ccccc23)c1.Cl (centres unmarked) [Compound 155, 3-(1-(cyclohexylmethyl)-1H-indol-3-yl)-N-(4-(piperazin-1-yl)phenyl)-3-(m-tolyl)propanamide hydrochloride salt]",MIC,[2],> 512 µg/mL
same,MIC,[3],> 512 µg/mL
"Cl.Nc1ccc(NC(=O)CCc2cn(CC3CCCCC3)c3ccc(Br)cc23)cn1 [Compound 298, N-(6-aminopyridin-3-yl)-3-(5-bromo-1-(cyclohexylmethyl)-1H-indol-3-yl)propanamide hydrochloride salt]",MIC,[2],> 512 µg/mL
same,MIC,[3],15 µg/mL
"Cc1cccc(C(CC(=O)Nc2ccc(N3CCCCC3)cc2)c2cn(CC3CCCCC3)c3ccccc23)c1.Cl (centres unmarked) [Compound 158, 3-(1-(cyclohexylmethyl)-1H-indol-3-yl)-N-(4-(piperidin-1-yl)phenyl)-3-(m-tolyl)propanamide hydrochloride salt]",MIC,[2],> 512 µg/mL
same,MIC,[3],> 512 µg/mL
"N[C@H]1CC[C@@H](NC(=O)CC(c2cccnc2)c2cn(Cc3ccccc3)c3ccccc23)CC1 (some centres unmarked) [Compound 75, N-((1s,4s)-4-aminocyclohexyl)-3-(1-benzyl-1H-indol-3-yl)-3-(pyridin-3-yl)propanamide hydrochloride salt]",IC50,[1],343 µM
"Cc1cccc(C(CC(=O)NCCC2CCNCC2)c2cn(Cc3ccccc3)c3ncncc23)c1 (centres unmarked) [Compound 94, 3-(7-benzyl-7H-pyrrolo[2,3-d]pyrimidin-5-yl)-N-(2-(piperidin-4-yl)ethyl)-3-(m-tolyl)propanamide hydrochloride salt]",IC50,[1],912 µM
"O=C(CCc1cn(Cc2ccccc2)c2ccccc12)NC1CCNCC1 [Compound 102, 3-(1-benzyl-1H-indol-3-yl)-N-(piperidin-4-yl)propanamide hydrochloride salt]",IC50,[1],950 µM
"CCOP(=O)(NCCC1CCN(C(=O)CC(c2cccc(C)c2)c2cn(CC3CCCCC3)c3ccccc23)CC1)OCC (centres unmarked) [Compound 227, diethyl (2-(1-(3-(1-(cyclohexylmethyl)-1H-indol-3-yl)-3-(m-tolyl)propanoyl)piperidin-4-yl)ethyl)phosphoramidate]",MIC,[2],> 512 µg/mL
same,MIC,[3],318 µg/mL
"CCn1cc(C(CC(=O)NC2CCNCC2)c2cccc(C)c2)c2ccccc21 (centres unmarked) [Compound 91, 3-(1-ethyl-1H-indol-3-yl)-N-(piperidin-4-yl)-3-(m-tolyl)propanamide hydrochloride salt]",IC50,[1],1080 µM
"Cl.Cl.N[C@H]1CC[C@H](NCCC(c2cn(C3CCCCC3)c3ccccc23)C2CCCCC2)CC1 (stereo partly drawn) [Compound 378, ((1R,4R)-N1-(3-cyclohexyl-3-(1-cyclohexyl-1H-indol-3-yl)propyl)cyclohexane-1,4-diamine salt]",IC50,[1],22 µM
